Assay: Reversal of P-gp-mediated multidrug resistance in human MCF7/Dox cells assessed as potentiation of doxorubicin-induced cytotoxicity by measuring doxorubicin IC50 at 12.5 uM after 48 hrs by MTT assay (Rvb = 51.19 +/- 0.95 microM)

SMILES | IC50 [µM]
CCc1c(OC)cc(OC)c(C(=O)/C=C/c2cccc(N3CCNCC3)c2)c1O | 4.69
COc1cc(OC)c(C(=O)/C=C/c2cccc(N3CCNCC3)c2)c(O)c1CC=C(C)C | 1.02
COc1c(C)c(O)c(C)c(O)c1C(=O)/C=C/c1ccccc1 [CHEBI:70658] | 24.7
CCCCCc1c(OC)cc(OC)c(C(=O)/C=C/c2cccc(N3CCNCC3)c2)c1O | 23.6
COc1cc(O)c(C(=O)/C=C/c2cccc(N3CCNCC3)c2)c(OC)c1 | 2.63
COc1cc(OC)c(C(=O)/C=C/c2cccc(N3CCOCC3)c2)c(O)c1CC=C(C)C | 31.6
COc1cc(OC)c(C(=O)/C=C/c2ccc(Cl)cc2)c(O)c1CC=C(C)C | 21.8
COc1cc(O)c(C(=O)/C=C/c2ccc(N3CCN(C(=O)OC(C)(C)C)CC3)cc2)c(OC)c1 | 59.2
COc1ccc(/C=C/C(=O)c2c(OC)cc(OC)c(CC=C(C)C)c2O)cc1 | 20.7
COc1cc(O)c(C(=O)/C=C/c2cccc(N3CCN(C(=O)c4ccc(OC)c(OC)c4)CC3)c2)c(OC)c1 | 42.3
CCCCc1c(OC)cc(OC)c(C(=O)/C=C/c2cccc(N3CCNCC3)c2)c1O | 3.57
COc1cc(O)c(C(=O)/C=C/c2cccc(N3CCOCC3)c2)c(OC)c1 | 18.8
COc1cc(OC)c(C(=O)/C=C/c2cccc(N3CCN(C(=O)OC(C)(C)C)CC3)c2)c(O)c1CC=C(C)C | 20.1
COc1cc(OC)c(C(=O)/C=C/c2cccc(F)c2)c(O)c1CC=C(C)C | 12.6
COc1cc(OC)c(C(=O)/C=C/c2cccc(Cl)c2)c(O)c1CC=C(C)C | 9.39
COc1cc(OC)c(C(=O)/C=C/c2ccc(N3CCN(C(=O)OC(C)(C)C)CC3)cc2)c(O)c1CC=C(C)C | 52.2
COc1cc(O)c(C(=O)/C=C/c2cccc(N3CCN(C)CC3)c2)c(OC)c1 | 18
COc1cc(OC)c(C(=O)/C=C/c2cccc(C(F)(F)F)c2)c(O)c1CC=C(C)C | 6.26
CCCc1c(OC)cc(OC)c(C(=O)/C=C/c2cccc(N3CCNCC3)c2)c1O | 5.12
COc1cccc(/C=C/C(=O)c2c(OC)cc(OC)c(CC=C(C)C)c2O)c1 | 7.86
COc1cc(OC)c(C(=O)/C=C/c2ccc(OC)c(OC)c2OC)c(O)c1CC=C(C)C | 27.5
COc1ccc(C(=O)/C=C/c2cccc(N3CCNCC3)c2)c(OC)c1 | 4.9
COc1cc(OC)c(C(=O)/C=C/c2ccc(N(C)C)cc2)c(O)c1CC=C(C)C | 17.4

From BindingDB's records for doi:10.1016/j.ejmech.2019.05.053 (East China University of Science and Technology, 2019)
